Tests used:
Type in all cases: biochemical
PKC theta = target: T1, PKC theta (Homo sapiens, UniProt Q04759); assay: Z'-Lyte FRET kinase assay (Invitrogen), PKC theta; details: read-out: IC50, activity toward kinase PKC theta
T1 construct: purchased Invitrogen (Carlsbad, Calif.), screening service
Source text: The effect of potential modulators of kinase activity can be measured in a variety of different assays known in the art. For example, direct radiometric, indirect FRET or AlphaScreen assays may be used to assess the level of phosphorylation of a substrate in the presence of test compounds in order to determine the inhibitory affect of the compound on the kinase. Invitrogen (Carlsbad, Calif.) uses a FRET based assay for Btk, EGFR, EphB2, Flt3, lrak4, Kdr, MAP2K1, MAPKAPK2, PDGFRB, PKC theta, Stk6 and Yes. For these assays, compounds of the invention were screened by Invitrogen using Z′-Lyte™ kinase assay.
Briefly, the Invitrogen kinase assay involves use of a specific peptide substrate optimized for each kinase, containing a fluorophore at each end that make up the FRET pair. The peptide sensitivity to proteolytic cleavage depends on phosphorylation of the peptide. Non-phosphorylated peptide is cleaved by a protease while peptide phosphorylated by the kinase is not cleaved. Cleavage of the peptide disrupts the FRET between the donor (coumarin) and acceptor (fluorescein) fluorophores, resulting in an increase in the ratio of donor emission to acceptor emission. The emission ratio of coumarin to fluorescein is used to assess the reaction progress. The extent of phosphorylation is determined from the emission ratio, which is low when the kinase is active (phosphorylated peptide is not cleaved, FRET pair connected) or higher for inhibited kinase (non-phosphorylated peptide is cleaved, FRET pair separated). Thus, the assay involves a kinase reaction in the presence of varying concentrations of a given compound, a development reaction with site specific protease, and detection of the fluorescent emission ratio of coumarin and fluorscein. […] Reaction conditions for each kinase are determined to provide optimal reaction times, incubation temperature, kinase and ATP concentrations. Test samples are made up in 1× kinase buffer (50 mM HEPES pH 7.5, 50 mM MgCl2, 5 mM EGTA, 0.05% BRIJ-35) and compound at desired concentration prepared in DMSO such that the final DMSO is 1%. […] Typically, assay plates are prepared to 10 μl final volume per sample, adding 2.5 μl of compound at 4× the desired concentration in 4% DMSO (serial dilution of compound provides concentration curve), 5 μl of the desired kinase mixed with Z′-LYTE™ peptide substrate (2× in 2× kinase buffer, final peptide at 2 μM), and 2.5 μl of 4×ATP solution. All kinase except for MAP2K1 were at 10 μM ATP in the kinase reaction, while MAP2K1 was at 100 μM. Samples are mixed and the kinase reaction is incubated 1 hour at room temperature, after which 5 μl of development solution is added and mixed. After incubation for another 1 hour at room temperature, 5 μl of stop reagent is added to each sample and mixed. The fluorescence signals are measured to determine the emission ratio.

Kdr = target: T2, Kdr (Homo sapiens, UniProt P35968); assay: Z'-Lyte FRET kinase assay (Invitrogen), Kdr; details: read-out: IC50, activity toward kinase Kdr
T2 construct: purchased Invitrogen (assay run by Invitrogen)

Akt3 = Akt3 (Homo sapiens, UniProt Q9Y243); assay: AlphaScreen kinase assay, Akt3; details: read-out: IC50, activity toward kinase Akt3
Method in brief: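 Biotinylated peptide substrate is phosphorylated by kinase; anti-phosphopeptide antibody on acceptor beads and streptavidin donor beads bring emission when substrate is phosphorylated. Inhibition lowers acceptor signal. Compounds from 20 mM DMSO stock tested as 8-point 1:3 serial dilutions.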

IKK beta = target: T3, IKK beta (Homo sapiens, UniProt O14920); assay: AlphaScreen kinase assay, IKK beta; details: read-out: IC50, activity toward kinase IKK beta
T3 sequence (O14920 1-756): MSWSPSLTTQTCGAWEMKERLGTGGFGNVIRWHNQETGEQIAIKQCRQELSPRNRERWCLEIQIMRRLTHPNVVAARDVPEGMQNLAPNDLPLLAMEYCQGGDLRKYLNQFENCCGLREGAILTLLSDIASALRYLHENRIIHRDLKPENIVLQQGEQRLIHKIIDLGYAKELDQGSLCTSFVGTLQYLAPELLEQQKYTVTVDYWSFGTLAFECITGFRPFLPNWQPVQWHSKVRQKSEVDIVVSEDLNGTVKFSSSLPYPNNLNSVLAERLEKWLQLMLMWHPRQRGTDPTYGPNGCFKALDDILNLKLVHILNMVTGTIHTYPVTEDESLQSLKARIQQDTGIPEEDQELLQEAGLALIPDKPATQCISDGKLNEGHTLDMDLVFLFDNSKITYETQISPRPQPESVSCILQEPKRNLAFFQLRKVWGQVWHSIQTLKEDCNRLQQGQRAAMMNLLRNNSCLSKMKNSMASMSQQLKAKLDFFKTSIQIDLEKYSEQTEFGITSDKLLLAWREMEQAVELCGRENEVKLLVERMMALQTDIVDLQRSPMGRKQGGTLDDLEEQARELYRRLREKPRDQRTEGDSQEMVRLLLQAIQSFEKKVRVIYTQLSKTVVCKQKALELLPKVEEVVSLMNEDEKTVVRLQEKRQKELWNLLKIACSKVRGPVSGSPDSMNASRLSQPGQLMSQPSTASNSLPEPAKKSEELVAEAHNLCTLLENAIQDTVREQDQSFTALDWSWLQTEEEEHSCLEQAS
Procedure: AlphaScreen assays were done using compounds dissolved in DMSO to a concentration of 20 mM. The compounds were diluted accordingly to the desired final concentrations in each sample well, using 1:3 serial dilution for a total of 8 concentration points. Plates were prepared such that each kinase reaction is 20 μl in 1× kinase buffer, 5% DMSO and 10 μM ATP. After incubation of the kinase reaction for 1 hour at room temperature, 5 μl of donor beads in stop buffer (50 mM EDTA in 1× kinase buffer) was added, the sample was mixed and incubated for 20 minutes at room temperature before adding 5 μl of acceptor beads in stop buffer. The samples were incubated for 60 minutes at room temperature and the signal per well was read on AlphaQuest reader.

B-Raf V600E = target: T4, B-Raf V600E (Homo sapiens, UniProt P15056, V600E); assay: AlphaScreen kinase assay, B-Raf V600E; details: read-out: IC50, activity toward kinase B-Raf V600E
T4 construct: P4254. pFastBacBD-CDC37 BRAF D437-K722-X, V600E; His6 with pFastBac HT leader (TEV site) (N); made in house; host or cells: Sf9 (baculovirus; chaperone CDC37 co-expressed)

Itk = target: T5, Itk (Homo sapiens, UniProt Q08881); assay: AlphaScreen kinase assay, Itk; details: read-out: IC50, activity toward kinase Itk
T5 sequence (Q08881 1-620): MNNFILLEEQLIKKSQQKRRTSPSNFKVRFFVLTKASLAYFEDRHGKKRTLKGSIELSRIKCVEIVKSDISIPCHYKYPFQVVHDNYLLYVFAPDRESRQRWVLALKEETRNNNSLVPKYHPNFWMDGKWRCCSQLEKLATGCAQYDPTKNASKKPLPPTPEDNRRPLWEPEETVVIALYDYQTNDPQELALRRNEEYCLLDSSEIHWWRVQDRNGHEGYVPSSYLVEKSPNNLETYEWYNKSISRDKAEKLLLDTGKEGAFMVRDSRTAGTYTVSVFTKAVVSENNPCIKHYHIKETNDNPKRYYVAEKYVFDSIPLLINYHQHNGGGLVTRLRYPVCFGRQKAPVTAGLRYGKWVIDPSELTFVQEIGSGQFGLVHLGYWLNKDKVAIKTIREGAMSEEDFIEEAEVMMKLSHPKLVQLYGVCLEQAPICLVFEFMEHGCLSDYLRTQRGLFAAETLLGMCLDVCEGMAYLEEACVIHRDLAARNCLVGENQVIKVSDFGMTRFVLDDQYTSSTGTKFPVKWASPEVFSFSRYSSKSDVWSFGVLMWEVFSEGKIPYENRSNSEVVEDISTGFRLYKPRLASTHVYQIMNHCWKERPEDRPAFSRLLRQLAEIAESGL
Source text: AlphaScreen assay was used to screen additional kinases. The assay is similarly dependent on the phosphorylation of a peptide substrate. In this assay, an antibody that recognizes phosphorylated substrate is bound to an acceptor bead. The peptide substrate is attached to biotin, which binds to a donor head that contains streptavidin. Thus phosphorylated substrate is bound by antibody and streptavidin, bringing the donor and acceptor heads into close proximity when kinase is not inhibited. The donor produces singlet oxygen which results in emission from the acceptor when they are in close proximity. Conversely, when kinase is inhibited, the donor and acceptor beads are not associated and the emission from the acceptor is reduced.
AlphaScreen assays were done using compounds dissolved in DMSO to a concentration of 20 mM. The compounds were diluted accordingly to the desired final concentrations in each sample well, using 1:3 serial dilution for a total of 8 concentration points.

Yes = target: T6, Yes (Homo sapiens, UniProt P07947); assay: Z'-Lyte FRET kinase assay (Invitrogen), Yes; details: read-out: IC50, activity toward kinase Yes
T6 construct: purchased Invitrogen (Carlsbad, Calif.), screening service
Method in brief: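 Each kinase phosphorylated a FRET peptide (2 μM) at 10 μM ATP in 50 mM HEPES pH 7.5, 50 mM MgCl2, 5 mM EGTA, 0.05% BRIJ-35 with 1% DMSO, 1 h at room temperature. After a 1 h protease development step, coumarin/fluorescein emission ratio was read across serial compound dilutions.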

Jnk1 = target: T7, Jnk1 (Homo sapiens, UniProt P45983); assay: AlphaScreen kinase assay, Jnk1; details: read-out: IC50, activity toward kinase Jnk1
T7 construct: purchased Upstate Biotechnology

Fak = target: T8, Fak (Homo sapiens, UniProt Q05397); assay: AlphaScreen kinase assay, Fak; details: read-out: IC50, activity toward kinase Fak
T8 construct: P1358.pFastBacHtb FAK S411-Q686-X; His6 with pFastBacHTb leader (TEV site) (N); made in house; host or cells: Sf9 (baculovirus)

Btk = target: T9, Btk (Homo sapiens, UniProt Q06187); assay: Z'-Lyte FRET kinase assay (Invitrogen), Btk; details: read-out: IC50, activity toward kinase Btk
T9 construct: purchased Invitrogen (assay run by Invitrogen)
Source text: For example, direct radiometric, indirect FRET or AlphaScreen assays may be used to assess the level of phosphorylation of a substrate in the presence of test compounds in order to determine the inhibitory affect of the compound on the kinase. […] For these assays, compounds of the invention were screened by Invitrogen using Z′-Lyte™ kinase assay.
Briefly, the Invitrogen kinase assay involves use of a specific peptide substrate optimized for each kinase, containing a fluorophore at each end that make up the FRET pair. The peptide sensitivity to proteolytic cleavage depends on phosphorylation of the peptide. Non-phosphorylated peptide is cleaved by a protease while peptide phosphorylated by the kinase is not cleaved. Cleavage of the peptide disrupts the FRET between the donor (coumarin) and acceptor (fluorescein) fluorophores, resulting in an increase in the ratio of donor emission to acceptor emission. The emission ratio of coumarin to fluorescein is used to assess the reaction progress. […] Thus, the assay involves a kinase reaction in the presence of varying concentrations of a given compound, a development reaction with site specific protease, and detection of the fluorescent emission ratio of coumarin and fluorscein. […] Reaction conditions for each kinase are determined to provide optimal reaction times, incubation temperature, kinase and ATP concentrations. Test samples are made up in 1× kinase buffer (50 mM HEPES pH 7.5, 50 mM MgCl2, 5 mM EGTA, 0.05% BRIJ-35) and compound at desired concentration prepared in DMSO such that the final DMSO is 1%. […] All kinase except for MAP2K1 were at 10 μM ATP in the kinase reaction, while MAP2K1 was at 100 μM. Samples are mixed and the kinase reaction is incubated 1 hour at room temperature, after which 5 μl of development solution is added and mixed. After incubation for another 1 hour at room temperature, 5 μl of stop reagent is added to each sample and mixed. The fluorescence signals are measured to determine the emission ratio.

Pyk2 = target: T10, Pyk2 (Homo sapiens, UniProt Q14289); assay: AlphaScreen kinase assay, Pyk2; details: read-out: IC50, activity toward kinase Pyk2
T10 construct: purchased Upstate Biotechnology

Src = target: T11, Src (Homo sapiens, UniProt P12931); assay: AlphaScreen kinase assay, Src; details: read-out: IC50, activity toward kinase Src
T11 construct: P1144. pET-N6 BI-PTP SRC V86-L536-X; made in house

Fms = target: T12, Fms (Homo sapiens, UniProt P07333); assay: AlphaScreen kinase assay, Fms; details: read-out: IC50, activity toward kinase Fms
T12 construct: purchased Upstate Biotechnology

Flt1 = target: T13, Flt1 (Homo sapiens, UniProt P17948); assay: AlphaScreen kinase assay, Flt1; details: read-out: IC50, activity toward kinase Flt1
T13 construct: P1826.pETN6 BI-PTP FLT1 M799-D1165-X WT; His6 (N); made in house; host or cells: E. coli (PTP1B co-expressed)
T13 sequence (P17948 with tags, fused parts or gaps): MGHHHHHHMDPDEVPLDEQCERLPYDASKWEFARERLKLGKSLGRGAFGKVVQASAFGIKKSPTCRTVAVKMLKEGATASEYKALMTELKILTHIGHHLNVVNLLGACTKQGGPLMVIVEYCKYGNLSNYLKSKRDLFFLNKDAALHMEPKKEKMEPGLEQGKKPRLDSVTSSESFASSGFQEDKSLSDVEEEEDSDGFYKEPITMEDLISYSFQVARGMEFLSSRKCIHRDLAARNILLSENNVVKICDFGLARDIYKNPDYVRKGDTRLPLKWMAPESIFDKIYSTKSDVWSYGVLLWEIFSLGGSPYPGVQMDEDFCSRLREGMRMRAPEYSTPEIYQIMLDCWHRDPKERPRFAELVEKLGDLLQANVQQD

c-Raf-1 = target: T14, c-Raf-1 (Homo sapiens, UniProt P04049); assay: AlphaScreen kinase assay, c-Raf-1; details: read-out: IC50, activity toward kinase c-Raf-1
T14 construct: purchased Upstate Biotechnology

Jnk3 = target: T15, Jnk3 (Homo sapiens, UniProt P53779); assay: AlphaScreen kinase assay, Jnk3; details: read-out: IC50, activity toward kinase Jnk3
T15 construct: purchased Upstate Biotechnology

FGFR1 = target: T16, FGFR1 (Homo sapiens, UniProt P11362, C488A/C584S); assay: AlphaScreen kinase assay, FGFR1; details: read-out: IC50, activity toward kinase FGFR
T16 construct: P1351.pET N6 BI-PTP FGFR A458-E765-X C488A, C584S; made in house; host or cells: E. coli (PTP1B co-expressed)

B-Raf = target: T17, B-Raf (Homo sapiens, UniProt P15056); assay: AlphaScreen kinase assay, B-Raf; details: read-out: IC50, activity toward kinase B-Raf
T17 construct: purchased Upstate Biotechnology

Kit = target: T18, Kit (Homo sapiens, UniProt P10721); assay: AlphaScreen kinase assay, Kit; details: read-out: IC50, activity toward kinase Kit
T18 construct: P1332.N6 BI PTP KIT M552-K948-X COD; His6 (N); made in house; host or cells: E. coli (PTP1B co-expressed)

Measured: IC50

T2 sequence (P35968 20-1356): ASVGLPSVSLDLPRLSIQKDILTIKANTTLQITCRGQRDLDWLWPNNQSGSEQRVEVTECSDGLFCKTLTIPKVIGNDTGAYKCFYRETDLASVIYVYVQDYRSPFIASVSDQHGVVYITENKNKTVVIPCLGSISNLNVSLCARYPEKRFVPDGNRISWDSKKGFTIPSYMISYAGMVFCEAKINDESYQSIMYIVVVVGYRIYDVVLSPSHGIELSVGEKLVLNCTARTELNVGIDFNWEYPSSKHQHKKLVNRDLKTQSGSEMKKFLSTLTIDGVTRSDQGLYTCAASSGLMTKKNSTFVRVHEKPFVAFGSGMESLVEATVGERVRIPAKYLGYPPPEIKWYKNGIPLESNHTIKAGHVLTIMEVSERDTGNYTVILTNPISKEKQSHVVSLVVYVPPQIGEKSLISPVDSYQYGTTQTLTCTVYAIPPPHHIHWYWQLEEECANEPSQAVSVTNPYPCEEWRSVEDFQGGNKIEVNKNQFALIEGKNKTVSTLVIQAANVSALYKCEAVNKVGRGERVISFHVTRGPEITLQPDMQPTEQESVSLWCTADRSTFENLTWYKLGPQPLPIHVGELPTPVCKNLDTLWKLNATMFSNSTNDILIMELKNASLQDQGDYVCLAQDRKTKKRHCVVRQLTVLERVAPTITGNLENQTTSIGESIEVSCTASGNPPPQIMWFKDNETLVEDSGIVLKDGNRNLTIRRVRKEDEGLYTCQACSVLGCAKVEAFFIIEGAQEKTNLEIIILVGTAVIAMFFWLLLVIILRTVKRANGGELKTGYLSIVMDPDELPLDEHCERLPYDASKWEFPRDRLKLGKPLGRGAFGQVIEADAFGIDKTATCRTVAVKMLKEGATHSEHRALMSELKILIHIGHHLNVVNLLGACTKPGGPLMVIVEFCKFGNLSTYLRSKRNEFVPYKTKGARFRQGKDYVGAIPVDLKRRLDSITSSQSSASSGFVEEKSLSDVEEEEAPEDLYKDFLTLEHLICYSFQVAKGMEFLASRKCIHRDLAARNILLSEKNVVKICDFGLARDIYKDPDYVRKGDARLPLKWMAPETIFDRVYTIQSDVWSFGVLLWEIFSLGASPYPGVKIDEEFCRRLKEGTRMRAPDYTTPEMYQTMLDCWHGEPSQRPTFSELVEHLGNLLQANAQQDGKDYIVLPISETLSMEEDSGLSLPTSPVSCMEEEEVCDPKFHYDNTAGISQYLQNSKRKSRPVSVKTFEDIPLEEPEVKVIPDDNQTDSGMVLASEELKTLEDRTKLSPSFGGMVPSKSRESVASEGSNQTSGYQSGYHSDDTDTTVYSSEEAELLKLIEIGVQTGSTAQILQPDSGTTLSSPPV
T4 sequence (P15056 with tags, fused parts or gaps V600E): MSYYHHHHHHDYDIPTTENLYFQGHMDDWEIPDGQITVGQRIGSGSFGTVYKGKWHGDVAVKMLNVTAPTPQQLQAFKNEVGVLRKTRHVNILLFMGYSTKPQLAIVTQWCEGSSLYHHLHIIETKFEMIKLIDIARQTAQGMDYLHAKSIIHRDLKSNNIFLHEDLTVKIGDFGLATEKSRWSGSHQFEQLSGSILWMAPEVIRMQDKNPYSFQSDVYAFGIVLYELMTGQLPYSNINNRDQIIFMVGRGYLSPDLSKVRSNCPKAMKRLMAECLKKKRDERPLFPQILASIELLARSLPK
Akt3, sequence (Q9Y243 whole entry): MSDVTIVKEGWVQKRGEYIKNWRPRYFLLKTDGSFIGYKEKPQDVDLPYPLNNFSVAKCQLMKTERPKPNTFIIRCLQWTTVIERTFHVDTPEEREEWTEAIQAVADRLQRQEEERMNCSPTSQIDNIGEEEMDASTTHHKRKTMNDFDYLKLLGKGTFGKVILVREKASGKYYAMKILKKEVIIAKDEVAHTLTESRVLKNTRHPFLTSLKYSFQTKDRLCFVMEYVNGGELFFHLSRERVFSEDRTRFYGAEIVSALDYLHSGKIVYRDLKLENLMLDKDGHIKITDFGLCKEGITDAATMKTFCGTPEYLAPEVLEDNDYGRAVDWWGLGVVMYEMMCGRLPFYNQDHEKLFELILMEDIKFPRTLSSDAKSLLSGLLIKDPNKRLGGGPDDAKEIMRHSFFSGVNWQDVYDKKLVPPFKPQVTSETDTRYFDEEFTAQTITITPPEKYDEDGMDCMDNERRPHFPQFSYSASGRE
T1 sequence (Q04759 whole entry): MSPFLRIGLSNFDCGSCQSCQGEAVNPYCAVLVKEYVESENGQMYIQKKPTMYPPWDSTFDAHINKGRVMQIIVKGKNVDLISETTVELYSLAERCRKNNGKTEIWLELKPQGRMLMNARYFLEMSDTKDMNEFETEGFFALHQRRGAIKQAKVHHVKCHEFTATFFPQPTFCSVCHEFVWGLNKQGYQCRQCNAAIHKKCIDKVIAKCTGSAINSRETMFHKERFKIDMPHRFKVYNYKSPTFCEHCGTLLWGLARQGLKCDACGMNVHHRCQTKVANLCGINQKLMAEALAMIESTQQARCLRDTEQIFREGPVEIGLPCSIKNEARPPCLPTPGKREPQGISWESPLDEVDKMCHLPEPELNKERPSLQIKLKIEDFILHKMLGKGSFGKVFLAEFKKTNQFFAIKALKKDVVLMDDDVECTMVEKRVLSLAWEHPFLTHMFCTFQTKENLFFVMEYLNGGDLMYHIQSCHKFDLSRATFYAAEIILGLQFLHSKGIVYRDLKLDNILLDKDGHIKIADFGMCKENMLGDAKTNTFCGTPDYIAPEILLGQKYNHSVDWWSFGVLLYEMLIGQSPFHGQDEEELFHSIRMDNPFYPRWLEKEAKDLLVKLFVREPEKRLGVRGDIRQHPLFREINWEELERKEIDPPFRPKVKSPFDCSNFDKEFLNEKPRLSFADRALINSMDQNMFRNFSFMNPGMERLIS
T9 sequence (Q06187 whole entry): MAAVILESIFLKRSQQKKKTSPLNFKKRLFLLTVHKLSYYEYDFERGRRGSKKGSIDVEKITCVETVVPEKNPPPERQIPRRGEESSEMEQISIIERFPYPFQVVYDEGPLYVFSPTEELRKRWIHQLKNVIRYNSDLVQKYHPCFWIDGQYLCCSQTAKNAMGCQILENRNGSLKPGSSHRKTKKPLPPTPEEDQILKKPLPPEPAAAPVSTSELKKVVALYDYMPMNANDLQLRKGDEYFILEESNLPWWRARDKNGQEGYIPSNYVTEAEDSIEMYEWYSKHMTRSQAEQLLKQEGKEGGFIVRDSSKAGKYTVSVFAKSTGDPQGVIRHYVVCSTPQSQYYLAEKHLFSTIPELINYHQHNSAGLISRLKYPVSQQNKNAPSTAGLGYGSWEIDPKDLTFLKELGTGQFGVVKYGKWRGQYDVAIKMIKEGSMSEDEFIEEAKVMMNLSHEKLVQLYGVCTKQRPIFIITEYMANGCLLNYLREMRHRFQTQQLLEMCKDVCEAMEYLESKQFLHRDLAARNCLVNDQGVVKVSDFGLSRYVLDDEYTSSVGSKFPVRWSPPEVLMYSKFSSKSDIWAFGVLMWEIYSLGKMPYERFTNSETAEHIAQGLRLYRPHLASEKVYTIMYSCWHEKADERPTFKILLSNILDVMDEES
T15 sequence (P53779 whole entry): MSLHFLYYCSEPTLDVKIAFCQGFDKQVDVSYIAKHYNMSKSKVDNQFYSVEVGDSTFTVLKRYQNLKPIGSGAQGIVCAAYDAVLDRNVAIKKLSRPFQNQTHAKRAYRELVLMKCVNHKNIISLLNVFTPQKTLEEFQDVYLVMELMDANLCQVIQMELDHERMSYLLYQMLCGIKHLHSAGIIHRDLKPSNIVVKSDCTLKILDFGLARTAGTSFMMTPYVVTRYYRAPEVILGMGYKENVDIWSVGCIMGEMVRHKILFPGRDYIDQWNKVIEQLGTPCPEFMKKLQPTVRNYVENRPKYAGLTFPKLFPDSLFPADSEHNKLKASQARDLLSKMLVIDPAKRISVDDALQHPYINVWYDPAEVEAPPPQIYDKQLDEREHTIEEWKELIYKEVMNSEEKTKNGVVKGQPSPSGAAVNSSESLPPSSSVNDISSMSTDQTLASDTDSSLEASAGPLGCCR
T17 sequence (P15056 whole entry): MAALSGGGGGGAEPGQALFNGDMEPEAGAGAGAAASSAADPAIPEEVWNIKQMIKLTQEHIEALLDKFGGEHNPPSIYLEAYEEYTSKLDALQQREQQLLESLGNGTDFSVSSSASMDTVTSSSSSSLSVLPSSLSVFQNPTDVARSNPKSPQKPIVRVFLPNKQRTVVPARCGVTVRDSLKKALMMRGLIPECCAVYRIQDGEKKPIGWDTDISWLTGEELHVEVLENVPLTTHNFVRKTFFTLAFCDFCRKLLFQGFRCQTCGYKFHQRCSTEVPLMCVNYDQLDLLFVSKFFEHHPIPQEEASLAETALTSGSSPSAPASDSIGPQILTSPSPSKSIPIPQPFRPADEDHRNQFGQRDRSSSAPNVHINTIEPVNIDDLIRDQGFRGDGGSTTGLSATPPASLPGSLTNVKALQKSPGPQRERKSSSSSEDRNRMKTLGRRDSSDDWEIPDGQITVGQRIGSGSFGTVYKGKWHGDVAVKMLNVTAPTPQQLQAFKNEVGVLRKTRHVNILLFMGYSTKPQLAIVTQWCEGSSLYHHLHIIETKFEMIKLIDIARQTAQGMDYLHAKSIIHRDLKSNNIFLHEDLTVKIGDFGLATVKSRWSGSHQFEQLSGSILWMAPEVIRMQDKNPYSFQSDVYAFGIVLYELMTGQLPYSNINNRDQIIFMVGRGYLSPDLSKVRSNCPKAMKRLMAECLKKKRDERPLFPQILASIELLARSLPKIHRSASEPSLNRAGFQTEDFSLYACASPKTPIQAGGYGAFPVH
T16 sequence (P11362 458-765 C488A/C584S): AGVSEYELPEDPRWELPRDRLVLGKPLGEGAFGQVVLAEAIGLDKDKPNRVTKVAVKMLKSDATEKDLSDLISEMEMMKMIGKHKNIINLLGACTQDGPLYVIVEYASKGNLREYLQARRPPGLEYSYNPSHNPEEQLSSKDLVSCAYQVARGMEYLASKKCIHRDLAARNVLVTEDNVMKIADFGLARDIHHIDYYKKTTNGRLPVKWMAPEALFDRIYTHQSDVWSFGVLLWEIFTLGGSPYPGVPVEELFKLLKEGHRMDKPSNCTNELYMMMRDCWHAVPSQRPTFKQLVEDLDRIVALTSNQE

c1cc(-c2ccc(N3CCNCC3)nc2)c2cc[nH]c2n1 [Compound P-0270]
≤ 10 µM: PKC theta | Kdr | Akt3 | IKK beta

Brc1ccc(Nc2cnc3[nH]ccc3c2)cc1 [Compound P-1067]
≤ 10 µM: B-Raf V600E | Itk

O=C(c1ccc(O)cc1Cl)c1c[nH]c2ncc(-c3cccs3)cc12 [Compound P-0112]
≤ 10 µM: Yes | B-Raf V600E | Jnk1 | Fak | Btk | Pyk2 | Src | Fms | Flt1 | c-Raf-1 | PKC theta | Jnk3 | FGFR1 | Kdr | B-Raf | Akt3 | Kit
